The structures appear in SMILES notation. Counter-ions that a name gives are not always drawn.

The test addresses T1, recombinant IRAK-4 kinase (Homo sapiens, UniProt Q9NWZ3).
T1 construct: purchased Millipore, USA
T1 sequence (Q9NWZ3 1-460): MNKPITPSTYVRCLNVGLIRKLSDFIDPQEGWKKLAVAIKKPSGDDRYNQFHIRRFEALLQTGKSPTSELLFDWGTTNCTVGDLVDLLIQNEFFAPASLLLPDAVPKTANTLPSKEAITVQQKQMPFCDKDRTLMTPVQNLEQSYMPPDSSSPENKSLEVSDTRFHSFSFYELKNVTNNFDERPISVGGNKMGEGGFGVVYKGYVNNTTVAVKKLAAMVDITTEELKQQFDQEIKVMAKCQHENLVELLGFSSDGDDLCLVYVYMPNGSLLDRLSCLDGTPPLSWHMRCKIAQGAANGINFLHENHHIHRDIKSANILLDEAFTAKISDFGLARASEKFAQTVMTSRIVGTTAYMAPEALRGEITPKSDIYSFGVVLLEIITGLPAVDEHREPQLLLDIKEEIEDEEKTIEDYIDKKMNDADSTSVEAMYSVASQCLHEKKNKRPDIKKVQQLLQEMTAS
Nature of the test: IRAK-4 Biochemical Assay (TR-FRET). As to conditions: 5 ng IRAK-4 kinase, 100 nM Biotin Histone H3, 20 μM ATP, 30 minutes pre-incubation, read-out: IC50 values for IRAK4 activity. How it is done: Compounds were tested for their potential to inhibit IRAK-4 enzyme in a TR-FRET assay using recombinant IRAK-4 kinase from Millipore, USA. The assay buffer was 50 mM Tris-HCl pH 7.5, 20 mM MgCl2, 1 mM EGTA, 2 mM DTT, 3 mM MnCl2 and 0.01% Tween20. 5 ng of IRAK-4 kinase was used for the assay. After pre-incubation of enzyme with test compound for 30 minutes at room temperature, a substrate mix containing 100 nM Biotin Histone H3 (Millipore, USA) and 20 μM ATP (Sigma, USA) was added and the reaction was incubated for 30 minutes. Post incubation, the reaction was stopped by the addition of stop mix containing 40 mM EDTA, 1 nM of Europium-Anti-Phospho-Histone H3 (Ser10) antibody (Perkin Elmer, USA) and 20 nM Sure Light Allophycocyanin-Streptavidin (Perkin Elmer, USA).
On the technique in general: Time-resolved FRET reads energy transfer from a long-lived donor to a nearby acceptor.
One may read the IC50 as the midpoint of a concentration-inhibition curve. As to `Cc1cc(-c2nc(C(=O)Nc3cc4sc(N5CCOCC5)nc4nc3N3CC[C@H](N)C3)co2)ccn1` [Example 67, (S)—N-(5-(3-aminopyrrolidin-1-yl)-2-morpholinothiazolo[4,5-b]pyridin-6-yl)-2-(2-methylpyridin-4-yl)oxazole-4-carboxamide], the IC50 is less than 50 nM.
`COc1ccc(-c2nc(C(=O)Nc3cc4oc(N5CCOCC5)nc4nc3N3CCC(O)C3)co2)cn1` (stereo not shown) [Example 106, N-(5-(3-hydroxypyrrolidin-1-yl)-2-morpholinooxazolo[4,5-b]pyridin-6-yl)-2-(6-methoxypyridin-3-yl)oxazole-4-carboxamide]: the IC50 was greater than 100 nM.
In the case of `Nc1ccc(-c2cccc(C(=O)Nc3cnc4nc(N5CCOCC5)sc4c3)n2)cn1` [Example 16, 6′-amino-N-(2-morpholinothiazolo[4,5-b]pyridin-6-yl)-[2,3′-bipyridine]-6-carboxamide] it was less than 50 nM; in that of `COc1ccc(-c2nc(C(=O)Nc3cc4oc(N5CCOCC5)nc4nc3N3CC[C@H](O)C3)co2)cn1` [Example 103, (S)—N-(5-(3-hydroxypyrrolidin-1-yl)-2-morpholinooxazolo[4,5-b]pyridin-6-yl)-2-(6-methoxypyridin-3-yl)oxazole-4-carboxamide], greater than 100 nM; in that of `Cc1cc(-c2nc(C(=O)Nc3cc4oc(N5CCCCC5)nc4nc3N3CCCC3)co2)ccn1` [Example 111, 2-(2-methylpyridin-4-yl)-N-(2-(piperidin-1-yl)-5-(pyrrolidin-1-yl)oxazolo[4,5-b]pyridin-6-yl)oxazole-4-carboxamide], less than 50 nM.
For `N[C@H]1CCN(c2cccc(C(=O)Nc3cc4sc(N5CCCCC5)nc4nc3N3CCCCC3)n2)C1` [Example 64, (S)-6-(3-aminopyrrolidin-1-yl)-N-(2,5-di(piperidin-1-yl)thiazolo[4,5-b]pyridin-6-yl)picolinamide], the IC50 was less than 50 nM.
In the case of `COc1ccc(-c2nc(C(=O)Nc3cc4sc(N5CCOCC5)nc4nc3N3CCC(O)C3)co2)cn1` (stereo not shown) [Example 76, N-(5-(3-hydroxypyrrolidin-1-yl)-2-morpholinothiazolo[4,5-b]pyridin-6-yl)-2-(6-methoxypyridin-3-yl)oxazole-4-carboxamide] it was less than 50 nM; in that of `N[C@H]1CCN(c2nc(C(=O)Nc3cc4sc(N5CCOCC5)nc4nc3N3CCCCC3)co2)C1` [Example 66, (S)-2-(3-aminopyrrolidin-1-yl)-N-(2-morpholino-5-(piperidin-1-yl)thiazolo[4,5-b]pyridin-6-yl)oxazole-4-carboxamide], less than 50 nM; in that of `Cc1cc(-c2nc(C(=O)Nc3cc4sc(N5CCCC(O)C5)nc4nc3N3CCCCC3)co2)ccn1` (stereo not shown) [Example 124, N-(2-(3-hydroxypiperidin-1-yl)-5-(piperidin-1-yl)thiazolo[4,5-b]pyridin-6-yl)-2-(2-methylpyridin-4-yl)oxazole-4-carboxamide], less than 50 nM.
As for `O=C(Nc1cc2sc(N3CCOCC3)nc2nc1C1CC1)c1coc(N2CC[C@H](O)C2)n1` [Example 73, (S)—N-(5-cyclopropyl-2-morpholinothiazolo[4,5-b]pyridin-6-yl)-2-(3-hydroxypyrrolidin-1-yl)oxazole-4-carboxamide], the 50% inhibitory concentration (IC50) is less than 50 nM.
For the compound `Cc1cc(-c2nc(C(=O)Nc3cc4sc(N5CCOCC5)nc4nc3-c3cccc(F)c3)co2)ccn1` [Example 100, N-(5-(3-fluorophenyl)-2-morpholinothiazolo[4,5-b]pyridin-6-yl)-2-(2-methylpyridin-4-yl)oxazole-4-carboxamide], the IC50 is less than 50 nM.
In the case of `Cc1cc(-c2nc(C(=O)Nc3cc4sc(N5CCOCC5)nc4nc3C3CC3)co2)ccn1` [Example 69, N-(5-cyclopropyl-2-morpholinothiazolo[4,5-b]pyridin-6-yl)-2-(2-methylpyridin-4-yl)oxazole-4-carboxamide] it was less than 50 nM; in that of `Cc1cc(-c2ccc(C(=O)Nc3cc4oc(N5CCOCC5)nc4nc3N3CCC[C@@H](O)C3)o2)ccn1` [Example 115, (R)—N-(5-(3-hydroxypiperidin-1-yl)-2-morpholinooxazolo[4,5-b]pyridin-6-yl)-5-(2-methylpyridin-4-yl)furan-2-carboxamide], less than 50 nM; in that of `Cc1ccc(-c2nc(C(=O)Nc3cc4oc(N5CCOCC5)nc4nc3N3CCCCC3)co2)cn1` [Example 35, 2-(6-methylpyridin-3-yl)-N-(2-morpholino-5-(piperidin-1-yl)oxazolo[4,5-b]pyridin-6-yl)oxazole-4-carboxamide], less than 50 nM.
Regarding `Cc1cc(-c2nc(C(=O)Nc3cc4sc(N5CCOCC5)nc4nc3N3CCCCCC3)co2)ccn1` [Example 91, N-(5-(azepan-1-yl)-2-morpholinothiazolo[4,5-b]pyridin-6-yl)-2-(2-methylpyridin-4-yl)oxazole-4-carboxamide], the concentration for half-maximal inhibition (IC50) is less than 50 nM.
The figure for `Cn1cc(-c2cccc(C(=O)Nc3cc4sc(N5CCOCC5)nc4nc3N3CCCCC3)n2)cn1` [Example 51, 6-(1-methyl-1H-pyrazol-4-yl)-N-(2-morpholino-5-(piperidin-1-yl)thiazolo[4,5-b]pyridin-6-yl)picolinamide] is less than 50 nM.
As for `Cc1cc(-c2nc(C(=O)Nc3cc4sc(N5CCOCC5)nc4nc3-c3ccc(F)nc3)co2)ccn1` [Example 122, N-(5-(6-fluoropyridin-3-yl)-2-morpholinothiazolo[4,5-b]pyridin-6-yl)-2-(2-methylpyridin-4-yl)oxazole-4-carboxamide], the concentration for half-maximal inhibition (IC50) is less than 50 nM.
The figure for `Cc1cc(-c2ccc(C(=O)Nc3cc4oc(N5CCOCC5)nc4nc3N3CCCCC3)o2)ccn1` [Example 113, 5-(2-methylpyridin-4-yl)-N-(2-morpholino-5-(piperidin-1-yl)oxazolo[4,5-b]pyridin-6-yl)furan-2-carboxamide] is less than 50 nM; for `Cc1cnccc1-c1nc(C(=O)Nc2cc3oc(N4CCCCC4)nc3nc2N2CCCCC2)co1` [Example 34, N-(2,5-di(piperidin-1-yl)oxazolo[4,5-b]pyridin-6-yl)-2-(3-methylpyridin-4-yl)oxazole-4-carboxamide] it is less than 50 nM.
In the case of `O=C(Nc1cc2oc(N3CCOCC3)nc2nc1N1CCCCC1)c1coc(-c2cccnc2O)n1` [Example 29, 2-(2-hydroxypyridin-3-yl)-N-(2-morpholino-5-(piperidin-1-yl)oxazolo[4,5-b]pyridin-6-yl)oxazole-4-carboxamide] it was less than 50 nM; in that of `Cc1cc(-c2nc(C(=O)Nc3cc4sc(N5CCOCC5)nc4nc3-c3cn[nH]c3)co2)ccn1` [Example 121, 2-(2-methylpyridin-4-yl)-N-(2-morpholino-5-(1H-pyrazol-4-yl)thiazolo[4,5-b]pyridin-6-yl)oxazole-4-carboxamide], less than 50 nM; in that of `O=C(Nc1cc2oc(N3CCCCC3)nc2nc1N1CCCCC1)c1cccc(-c2cn[nH]c2)n1` [Example 4, N-(2,5-di(piperidin-1-yl)oxazolo[4,5-b]pyridin-6-yl)-6-(1H-pyrazol-4-yl)picolinamide hydrochloride], 50 to 100 nM.
In the case of `Cc1cc(-c2ccc(C(=O)Nc3cc4sc(N5CCOCC5)nc4nc3N3CCC(F)CC3)o2)ccn1` [Example 97, N-(5-(4-fluoropiperidin-1-yl)-2-morpholinothiazolo[4,5-b]pyridin-6-yl)-5-(2-methylpyridin-4-yl)furan-2-carboxamide] it was less than 50 nM; in that of `Nc1cc(-c2nc(C(=O)Nc3cc4sc(N5CCOCC5)nc4nc3N3CCCCC3)co2)ccn1` [Example 92, 2-(2-aminopyridin-4-yl)-N-(2-morpholino-5-(piperidin-1-yl)thiazolo[4,5-b]pyridin-6-yl)oxazole-4-carboxamide hydrochloride], less than 50 nM.
Take `O=C(Nc1cc2sc(N3CCCCC3)nc2nc1N1CCCCC1)c1cccc(N2CC[C@H](O)C2)n1` [Example 65, (S)—N-(2,5-di(piperidin-1-yl)thiazolo[4,5-b]pyridin-6-yl)-6-(3-hydroxypyrrolidin-1-yl)picolinamide]: the half-maximal inhibitory concentration (IC50) is less than 50 nM.
In the case of `Cc1cc(-c2ccc(C(=O)Nc3cc4sc(N5CCOCC5)nc4nc3N3CC[C@H](O)C3)o2)ccn1` [Example 82, (S)—N-(5-(3-hydroxypyrrolidin-1-yl)-2-morpholinothiazolo[4,5-b]pyridin-6-yl)-5-(2-methylpyridin-4-yl)furan-2-carboxamide] it was less than 50 nM; in that of `O=C(Nc1cc2sc(N3CCCCC3)nc2nc1N1CCCCC1)c1cccc(-c2cn[nH]c2)n1` [Example 22, N-(2,5-di(piperidin-1-yl)thiazolo[4,5-b]pyridin-6-yl)-6-(1H-pyrazol-4-yl)picolinamide], less than 50 nM.
In the case of `COc1cc(-c2nc(C(=O)Nc3cc4sc(N5CCCCC5)nc4nc3N3CCCCC3)co2)ccn1` [Example 56, N-(2,5-di(piperidin-1-yl)thiazolo[4,5-b]pyridin-6-yl)-2-(2-methoxypyridin-4-yl)oxazole-4-carboxamide] it was less than 50 nM.

Source of the values: patent publication US10047104B2, “Bicyclic heterocyclyl derivatives as IRAK4 inhibitors” (Aurigene Discovery Technologies Limited, priority 2014, dated 2018).
